Assay results as given in patent publication US20240376176A1 (priority 2021, published 2024).
Structures can show the parent of a compound that is named as a salt.

What was measured:
sciatic nerve = conditions: rat, in vivo
[1] = test system: sciatic nerves and adjacent tissues; conditions: rat, in vivo
[2] = target: natural sodium channel proteins; conditions: cited from earlier work

SMILES	Duration of nerve block (sciatic nerve)	Inflammation Score (range) Day 4 [1]	Inflammation Score (range) Day 14 [1]	Myotoxicity Score (range) Day 4 [1]	Myotoxicity Score (range) Day 14 [1]	Kd [2]
CCCCN1CCCCC1C(=O)Nc1c(C)cccc1C (stereo not drawn) [Free Bup, bupivacaine hydrochloride]	2.4 ± 0.3 h					
NC1=N[C@H](O)[C@H]2[C@H]3O[C@]4(O)O[C@@H]([C@@H](O)[C@@]2(N1)[C@@H]4O)[C@]3(O)CO [Free TTX, tetrodotoxin]		0.5	0 (0-1.0)	0 (0-1.0)	0 (0-1.0)	~1.3 nM
